These results are taken from US20170121385A1 (Oxeia Biopharmaceuticals, Inc., priority 2015, published 2017).

Like-named read-outs stand apart in the source and are kept apart here.

One series concerns the target GHS-R (Homo sapiens, UniProt Q92847). Kind of series: GHS-R antagonist activity in a cell based assay. To be noted: GHS-R modulating compounds.
For series [1], the system named is mild TBI. In words: mild TBI model (controlled cortical impactor), whole brain oxidative burst assay by flow cytometry. It is filed as in vivo, mouse. The procedure: In a mild TBI model, ghrelin therapy provided significant neuroprotective effects. Using a controlled cortical impactor, with standardized settings (5.0 m/s, a 3 mm diameter impounder tip, a depth of 1.0 mm, and a dwell time of 0.2 milliseconds), a mouse mild brain injury was elicited in three groups (n=5 in each group), sham, mTBI only, mTBI with 2 doses of ghrelin (50 μg/kg) 10 minutes and 1 hour after injury. Animals were sacrificed after 24 hours and whole brain reactive oxygen species was assessed by an oxidative burst assay as measured by flow cytometry. […] Ghrelin therapy decreased mTBI oxidative burst to sham levels 3,300 MFI (SEM 1,000); p<0.05 mTBI compared to drug treated.
On the technique in general: Flow cytometry measures light scatter and fluorescence of single cells or particles in a stream.

In the next series the test system is rodent brain injury. To be noted: cited from earlier work.
The subject of series [2] is severe TBI. Kind of series: severe TBI model (brain tissue loss, apoptosis, balance beam foot faults, edema). It is filed as in vivo, mice. The note with it: as low as 20 μg/kg in two doses early after injury; pre-clinical modeling. An excerpt:
In a series of publications, the Bansal laboratory has shown that exogenously dosed ghrelin confers significant neuroprotective benefits following severe TBI. […] Severe TBI causes significant tissue necrosis and neuron loss secondary to edema and apoptosis. […] Severe TBI induces apoptosis within the neocortex (TUNEL staining green). […] Severe TBI caused significant neurocognitive defects (as measured by foot faults on a balance beam assay) on post-TBI Day 1, 3 and 7 compared to sham.

Series [3] relates to severe TBI. The note with it: cited from earlier work; for brain tissue loss / loss of brain volume: 7 days following injury, 10 minutes and 1 hour after TBI; for brain tissue loss / loss of brain volume / apoptosis in the neocortex (TUNEL staining): ghrelin 20 μg/kg; for apoptosis in the neocortex (TUNEL staining): two doses.
The conditions of series [4]: human, in vivo; cited from earlier work.
For series [5], the system named is mild TBI. Kind of series: mild TBI model, myeloperoxidase (MPO) and Gr-1 (neutrophil) staining in the hippocampus. It is filed as in vivo, mouse. To be noted: same three animal groups. The procedure:
In a mild TBI model, ghrelin therapy provided significant neuroprotective effects. Using a controlled cortical impactor, with standardized settings (5.0 m/s, a 3 mm diameter impounder tip, a depth of 1.0 mm, and a dwell time of 0.2 milliseconds), a mouse mild brain injury was elicited in three groups (n=5 in each group), sham, mTBI only, mTBI with 2 doses of ghrelin (50 μg/kg) 10 minutes and 1 hour after injury. Ghrelin reduces oxidative burst (a measure of ROS) following mild TBI in animal models. Oxidative burst was determined 24 hours following mild TBI in three groups via flow cytometry. […] In separate experiments, using the same three animal groups, myeloperoxidase (MPO) and Gr-1 (neutrophil) staining were conducted in the hippocampus. […] Myeloperoxidase (MPO) is a potent enzyme in neutrophils and […] that forms hypochlorous acid (ROS). […] Ghrelin therapy reduced MPO staining. These observations built upon previous work showing ghrelin's protective effect following severe TBI models, stroke and other neurodegenerative diseases.

Chain of GHS-R (Q92847 whole entry, species assumed): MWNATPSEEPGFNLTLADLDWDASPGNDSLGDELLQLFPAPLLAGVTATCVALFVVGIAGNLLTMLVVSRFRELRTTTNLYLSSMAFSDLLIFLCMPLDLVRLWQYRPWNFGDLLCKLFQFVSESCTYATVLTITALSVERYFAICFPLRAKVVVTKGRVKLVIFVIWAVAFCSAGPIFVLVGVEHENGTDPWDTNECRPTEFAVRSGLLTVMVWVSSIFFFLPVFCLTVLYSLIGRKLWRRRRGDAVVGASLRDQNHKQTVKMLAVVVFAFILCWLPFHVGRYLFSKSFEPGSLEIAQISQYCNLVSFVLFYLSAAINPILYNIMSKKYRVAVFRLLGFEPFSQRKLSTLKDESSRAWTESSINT

By Ki is commonly meant the dissociation constant of the complex between target and ligand, obtained from inhibition or displacement. At GHS-R, `CCN(CC)CCCS(=O)(=O)N[C@H](CCc1ccccc1)c1nc(-c2cncc(Br)c2)no1` [Compound 103] returned a Ki of 100 to 500 nM.
“Ghrelin (GSSFLSPEHQRVQQRKESKKPPAKLQPR; Ghrelin-28; UniProt Q9UBU3 24-51, looked up)”: in the series on mild TBI [1] (50 μg/kg, two doses administered within 24 hours of injury, initial pre-clinical experiments), the “efficacy in mTBI” value is given as “efficacy”. Further, in the series on mild TBI [1] (24 hours following mild TBI, flow cytometry), the “oxidative burst (a measure of ROS) following mild TBI” value is reported as “significantly reduced”. In the series with mild TBI [1] (mouse mTBI, 2 doses of ghrelin (50 μg/kg) 10 minutes and 1 hour after injury, sacrificed after 24 hours, flow cytometry, n=5), the “oxidative burst (whole brain reactive oxygen species)” value is recorded as 3,300 MFI. In the series with rodent brain injury, the ROS accumulation result is listed as “prevents”, the neuro-cognitive function entry is “improves”, the neuron tissue loss result is listed as “decreases” and the neuronal apoptosis result is reported as “prevents”. Moreover, in the series with severe TBI [2], the “post-severe TBI edema” value is given as “significant decrease”. In addition, in the series with severe TBI [3] (listed as ghrelin), the “brain tissue loss / loss of brain volume” value is given as “significantly less” and the “apoptosis in the neocortex (TUNEL staining)” value was “significantly less”. For the same compound, in the series with severe TBI [3], the “brain tissue loss / loss of brain volume” value is on record as “significantly decreased”, the “invasion of inflammatory cells” value is reported as “decreased” and the “apoptosis in the neocortex (TUNEL staining)” value is on record as “significantly reduced”. Also, in the series on severe TBI [3] (post-TBI Day 1, 3 and 7, ghrelin dosed only at Day 0, listed as ghrelin), the “neurocognitive function (foot faults on a balance beam assay)” value is reported as “improved”. The “neurocognitive function (foot faults on a balance beam assay)” value in the series on severe TBI [3] (post-TBI Day 1, 3 and 7, ghrelin dosed only at Day 0) is listed as “prevented neurocognitive decline to levels of sham”. Moreover, in series [4], the serious adverse events result is recorded as “no serious adverse events” and the side effects observed entry is “only transient gastrointestinal symptoms”. In the series on mild TBI [5], the “MPO staining in the hippocampus” value was “significant reduction” and the “neutrophil infiltration (Gr-1 staining) in the hippocampus” value is “significant reduction”.
